# Biological target: T1, Q46 protein aggregates (Homo sapiens, UniProt P42858, INS38QQQQQQQQQQQQQQQQQQQQQQQQQ)
# T1 construct: fused on or other part: GST at the N-terminus, cut off by thrombin before the test to start aggregation
# Assay: Q46 Radioligand Binding Assay (RBA)
# Conditions: displacement of 10 nM [3H3]MK-3328 from 5 μM aggregated Q46 protein, 60 minutes at 37° C.
# Procedure: Q46 Radioligand Binding Assay
# For radioligand binding assays (RBA) GST-Q46 protein was generated based on a previous publication (Scherzinger et al. Cell, Vol. 90, 549-558, Aug. 8, 1997). For experiments 33 μM GST-Q46 was incubated with 150 μg/mL thrombin in assay buffer (150 mM NaCl, 50 mM Tris pH 8.0) and 2 mM CaCl2 for 16 hours at 37° C. Aggregated Q46 was pelleted by centrifugation for 5 minutes at 13,000 rpm in a bench top centrifuge and re-dissolved in the same volume of assay buffer. Test compounds were prepared by titration in DMSO at 11 concentrations from 33 μM to 1 nM. For the RBA, Q46 protein aggregates and test compounds were pre-incubated in assay buffer for 20 minutes at room temperature, in 140 μL/well in a 96-well plate (pp, round bottom). Then, ligand was added in 10 μL/well and incubated for 60 minutes at 37° C. Final assay concentrations were […] test compound, 5 μM Q46 protein (equivalent monomer concentration) and 10 nM ligand [^3H3]MK-3328 (Harrision et al., ACS Med. Chem. Lett., 2 (2011), pp 498-502). Samples were transferred onto GF/B filter plates and washed 2× with 200 μL PBS using a Filtermate Harvester. After drying filter plates for 1 hour at 37° C., the back of the plates was sealed with foil and 30 μl/well scintillation fluid (Packard MicroScint 40) was added, incubated for […] 15 minutes in the dark and counted in a TopCount reader. For analysis, replicate data from independent assay plates were normalized towards 0% and 100% inhibition using control wells of vehicle (0% inhibition) and 3 μM unlabelled MK-3328 (100% inhibition). IC50 values were determined with a sigmoidal inhibition model with four variables (top, bottom, slope, IC50) in a global fit using the normalized replicate data.
# T1 sequence (P42858 with tags, fused parts or gaps with the stated changes): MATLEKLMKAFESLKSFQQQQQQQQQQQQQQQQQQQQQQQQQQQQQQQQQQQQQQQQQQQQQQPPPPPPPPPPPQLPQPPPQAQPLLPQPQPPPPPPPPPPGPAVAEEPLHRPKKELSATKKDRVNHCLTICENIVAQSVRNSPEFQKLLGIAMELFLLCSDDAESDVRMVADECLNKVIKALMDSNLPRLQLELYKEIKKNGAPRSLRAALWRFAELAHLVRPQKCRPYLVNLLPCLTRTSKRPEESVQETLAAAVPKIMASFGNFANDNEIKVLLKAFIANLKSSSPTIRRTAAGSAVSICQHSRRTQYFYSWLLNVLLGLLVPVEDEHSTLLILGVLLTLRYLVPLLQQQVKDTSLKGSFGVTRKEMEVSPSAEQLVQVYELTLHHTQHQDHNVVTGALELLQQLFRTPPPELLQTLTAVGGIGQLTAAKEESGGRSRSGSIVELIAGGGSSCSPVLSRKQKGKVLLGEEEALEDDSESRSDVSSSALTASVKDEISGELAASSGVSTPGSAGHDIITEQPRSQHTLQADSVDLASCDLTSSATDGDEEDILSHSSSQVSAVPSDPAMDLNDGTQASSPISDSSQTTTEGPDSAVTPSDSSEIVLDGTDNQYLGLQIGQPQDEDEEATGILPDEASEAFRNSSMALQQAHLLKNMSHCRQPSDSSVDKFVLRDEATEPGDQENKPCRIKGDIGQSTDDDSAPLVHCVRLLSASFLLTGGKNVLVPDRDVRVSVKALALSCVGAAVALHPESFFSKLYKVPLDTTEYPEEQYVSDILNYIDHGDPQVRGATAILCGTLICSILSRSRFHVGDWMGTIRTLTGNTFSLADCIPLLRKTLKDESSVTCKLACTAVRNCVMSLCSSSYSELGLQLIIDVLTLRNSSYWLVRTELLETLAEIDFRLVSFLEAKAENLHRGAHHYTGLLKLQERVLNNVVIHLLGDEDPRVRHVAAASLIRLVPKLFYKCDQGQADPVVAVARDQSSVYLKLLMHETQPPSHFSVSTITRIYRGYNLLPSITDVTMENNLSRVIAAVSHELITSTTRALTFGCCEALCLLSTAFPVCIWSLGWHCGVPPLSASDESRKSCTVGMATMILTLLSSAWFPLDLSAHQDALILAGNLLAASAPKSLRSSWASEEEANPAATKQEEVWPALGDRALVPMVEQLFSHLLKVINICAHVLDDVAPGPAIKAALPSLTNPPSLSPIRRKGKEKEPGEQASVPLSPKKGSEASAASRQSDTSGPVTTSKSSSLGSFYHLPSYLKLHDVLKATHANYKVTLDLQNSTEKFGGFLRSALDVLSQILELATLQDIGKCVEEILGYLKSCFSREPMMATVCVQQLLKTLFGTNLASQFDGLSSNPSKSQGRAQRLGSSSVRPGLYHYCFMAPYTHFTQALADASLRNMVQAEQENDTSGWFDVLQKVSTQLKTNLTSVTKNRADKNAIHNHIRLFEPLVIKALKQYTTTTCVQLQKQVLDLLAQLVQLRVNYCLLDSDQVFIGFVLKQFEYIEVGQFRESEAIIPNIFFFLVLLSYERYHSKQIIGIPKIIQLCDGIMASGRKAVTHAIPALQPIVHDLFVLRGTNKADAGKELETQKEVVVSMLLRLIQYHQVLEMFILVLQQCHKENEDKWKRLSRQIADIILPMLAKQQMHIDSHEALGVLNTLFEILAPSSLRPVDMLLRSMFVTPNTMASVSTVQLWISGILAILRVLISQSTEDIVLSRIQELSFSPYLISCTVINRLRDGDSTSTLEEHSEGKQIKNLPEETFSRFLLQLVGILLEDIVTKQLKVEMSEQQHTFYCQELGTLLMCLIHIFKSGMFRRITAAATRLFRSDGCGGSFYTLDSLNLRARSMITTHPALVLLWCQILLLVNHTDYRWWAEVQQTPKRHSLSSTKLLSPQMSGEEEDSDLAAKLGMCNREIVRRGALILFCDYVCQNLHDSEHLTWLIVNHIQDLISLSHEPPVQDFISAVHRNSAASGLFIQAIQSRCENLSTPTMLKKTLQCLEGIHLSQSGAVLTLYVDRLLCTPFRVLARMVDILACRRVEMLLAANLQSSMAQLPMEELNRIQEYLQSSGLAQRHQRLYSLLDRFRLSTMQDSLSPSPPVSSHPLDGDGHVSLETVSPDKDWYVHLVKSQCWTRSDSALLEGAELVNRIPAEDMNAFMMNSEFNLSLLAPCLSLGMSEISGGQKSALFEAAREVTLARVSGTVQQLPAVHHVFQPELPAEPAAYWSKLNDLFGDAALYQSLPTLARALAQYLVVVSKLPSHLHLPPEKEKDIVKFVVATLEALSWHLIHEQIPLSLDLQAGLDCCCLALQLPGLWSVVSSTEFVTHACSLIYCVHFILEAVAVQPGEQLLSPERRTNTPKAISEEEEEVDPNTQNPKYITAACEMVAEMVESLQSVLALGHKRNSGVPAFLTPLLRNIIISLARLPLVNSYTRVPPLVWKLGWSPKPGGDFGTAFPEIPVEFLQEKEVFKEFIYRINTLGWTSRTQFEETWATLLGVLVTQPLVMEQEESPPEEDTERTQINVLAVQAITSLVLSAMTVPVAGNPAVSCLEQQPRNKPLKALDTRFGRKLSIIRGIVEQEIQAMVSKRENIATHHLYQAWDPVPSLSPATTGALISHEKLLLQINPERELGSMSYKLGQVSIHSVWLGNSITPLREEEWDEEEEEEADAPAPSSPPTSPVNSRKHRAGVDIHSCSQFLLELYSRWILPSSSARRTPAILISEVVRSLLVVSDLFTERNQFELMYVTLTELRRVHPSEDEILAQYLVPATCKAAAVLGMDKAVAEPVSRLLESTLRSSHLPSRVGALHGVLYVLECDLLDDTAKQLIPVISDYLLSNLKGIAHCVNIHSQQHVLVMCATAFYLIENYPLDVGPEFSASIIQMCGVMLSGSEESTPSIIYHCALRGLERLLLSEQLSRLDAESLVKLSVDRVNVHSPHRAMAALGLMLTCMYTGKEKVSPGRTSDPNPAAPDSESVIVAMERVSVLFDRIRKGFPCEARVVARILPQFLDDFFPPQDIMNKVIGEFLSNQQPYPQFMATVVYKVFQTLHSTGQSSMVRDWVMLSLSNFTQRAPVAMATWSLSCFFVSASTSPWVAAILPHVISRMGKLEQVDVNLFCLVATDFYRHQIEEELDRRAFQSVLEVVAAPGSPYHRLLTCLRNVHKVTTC
row,IC50 [µM],Structure (SMILES)
1,0.1 to 0.5,"CNc1c(-c2cccc(COCc3cccnc3)c2)nc2cc(C#N)ccn12 [3-(methylamino)-2-{3-[(pyridin-3-ylmethoxy)methyl]phenyl}imidazo[1,2-a]pyridine-7-carbonitrile]"
2,< 0.1,"CNc1c(-c2cc3cc(OC)ccc3o2)nc2cc(Cl)ccn12 [7-chloro-2-(5-methoxy-1-benzofuran-2-yl)-N-methylimidazo[1,2-a]pyridin-3-amine]"
3,< 0.1,"CNc1c(-c2cc3cc(OCc4cccnc4)ccc3o2)nc2cc(C#N)ccn12 [3-(methylamino)-2-[5-(pyridin-3-ylmethoxy)-1-benzofuran-2-yl]imidazo[1,2-a]pyridine-7-carbonitrile]"
4,< 0.1,"CNc1c(-c2cc3cc(F)ccc3o2)nc2cc(C#N)ccn12 [2-(5-fluoro-1-benzofuran-2-yl)-3-(methylamino)imidazo[1,2-a]pyridine-7-carbonitrile]"
5,< 0.1,"CNc1c(-c2cccc(-c3cnccn3)c2)nc2cc(C#N)ccn12 [3-(methylamino)-2-[3-(pyrazin-2-yl)phenyl]imidazo[1,2-a]pyridine-7-carbonitrile]"
6,< 0.1,"CNc1c(-c2cc3cc(OC)ccc3o2)nc2ccc(F)cn12 [6-fluoro-2-(5-methoxy-1-benzofuran-2-yl)-N-methylimidazo[1,2-a]pyridin-3-amine]"
7,0.1 to 0.5,"CNc1c(-c2cc3cc(O)ccc3o2)nc2ccc(F)cn12 [2-[6-fluoro-3-(methylamino)imidazo[1,2-a]pyridin-2-yl]-1-benzofuran-5-ol]"
8,< 0.1,"CNc1c(-c2cccc(OCc3cnc(OC)cn3)c2)nc2cc(C#N)ccn12 [2-{3-[(5-methoxypyrazin-2-yl)methoxy]phenyl}-3-(methylamino)imidazo[1,2-a]pyridine-7-carbonitrile]"
9,< 0.1,"CNc1c(-c2cccc(OCc3cccnc3)c2)nc2cc(C#N)ccn12 [3-(methylamino)-2-[3-(pyridin-3-ylmethoxy)phenyl]imidazo[1,2-a]pyridine-7-carbonitrile]"
10,0.1 to 0.5,"CNc1c(-c2cc3cc(OCCN(C)C)ccc3o2)nc2cc(C#N)ccn12 [2-{5-[2-(dimethylamino)ethoxy]-1-benzofuran-2-yl}-3-(methylamino)imidazo[1,2-a]pyridine-7-carbonitrile]"
11,< 0.1,"CNc1c(-c2nc3cc(OC)ccc3o2)nc2cc(C#N)ccn12 [2-(5-methoxy-1,3-benzoxazol-2-yl)-3-(methylamino)imidazo[1,2-a]pyridine-7-carbonitrile]"
12,< 0.1,"CNc1c(-c2nc3cc(OC)ccc3[nH]2)nc2cc(C#N)ccn12 [2-(5-methoxy-1H-1,3-benzodiazol-2-yl)-3-(methylamino)imidazo[1,2-a]pyridine-7-carbonitrile]"
13,< 0.1,"CNc1c(-c2cc3cc(OC)ccc3o2)nc2cc(C#N)ccn12 [2-(5-methoxy-1-benzofuran-2-yl)-3-(methylamino)imidazo[1,2-a]pyridine-7-carbonitrile]"
14,< 0.1,"CNc1c(-c2ccc(OCC3=CSC4=NCCN34)cc2)nc2cc(C#N)ccn12 [2-(4-{5H,6H-imidazo[2,1-b][1,3]thiazol-3-ylmethoxy}phenyl)-3-(methylamino)imidazo[1,2-a]pyridine-7-carbonitrile]"
15,0.1 to 0.5,"CNc1c(-c2cc3cc(OC)ccc3o2)nc2cc(CN)ccn12 [7-(aminomethyl)-2-(5-methoxy-1-benzofuran-2-yl)-N-methylimidazo[1,2-a]pyridin-3-amine]"
16,< 0.1,"CNc1c(-c2cc3cc(OC)ccc3o2)nc2ccc(C#N)cn12 [2-(5-methoxy-1-benzofuran-2-yl)-3-(methylamino)imidazo[1,2-a]pyridine-6-carbonitrile]"
17,< 0.1,"CNc1c(/C=C/c2ccc(OC)cc2)nc2cc(C#N)ccn12 [2-[(E)-2-(4-methoxyphenyl)ethenyl]-3-(methylamino)imidazo[1,2-a]pyridine-7-carbonitrile]"
18,0.1 to 0.5,"CNc1c(-c2ccc(COCc3cccnc3)cc2)nc2cc(C#N)ccn12 [3-(methylamino)-2-{4-[(pyridin-3-ylmethoxy)methyl]phenyl}imidazo[1,2-a]pyridine-7-carbonitrile]"
19,0.1 to 0.5,"CNc1c(-c2ccc3c(c2)OCCO3)nc2cc(C#N)ccn12 [2-(2,3-dihydro-1,4-benzodioxin-6-yl)-3-(methylamino)imidazo[1,2-a]pyridine-7-carbonitrile]"
20,0.1 to 0.5,"CNc1c(-c2cc3cc(OC)ccc3o2)nc2ccccn12 [2-(5-methoxy-1-benzofuran-2-yl)-N-methylimidazo[1,2-a]pyridin-3-amine]"

row,IC50 [µM],Structure (SMILES)
1,< 0.1,"CNc1c(-c2cc3cc(OC)ccc3o2)nc2cc(F)ccn12 [7-fluoro-2-(5-methoxy-1-benzofuran-2-yl)-N-methylimidazo[1,2-a]pyridin-3-amine]"
2,< 0.1,"CNc1c(-c2cnc(OCc3ccc(OC)cn3)cn2)nc2cc(C#N)ccn12 [2-{5-[(5-methoxypyridin-2-yl)methoxy]pyrazin-2-yl}-3-(methylamino)imidazo[1,2-a]pyridine-7-carbonitrile]"
3,< 0.1,"CNc1c(-c2ccc(OC)cc2)nc2cc(C#N)ccn12 [2-(4-methoxyphenyl)-3-(methylamino)imidazo[1,2-a]pyridine-7-carbonitrile]"
4,< 0.1,"COCCNc1c(-c2cc3cc(OC)ccc3o2)nc2cc(C#N)ccn12 [2-(5-methoxy-1-benzofuran-2-yl)-3-[(2-methoxyethyl)amino]imidazo[1,2-a]pyridine-7-carbonitrile]"
5,< 0.1,"CNc1c(-c2cc3ccc(OC)cc3o2)nc2cc(C#N)ccn12 [2-(6-methoxy-1-benzofuran-2-yl)-3-(methylamino)imidazo[1,2-a]pyridine-7-carbonitrile]"
6,< 0.1,"CNc1c(-c2ccc(NCc3ccc(OC)cn3)cc2)nc2cc(C#N)ccn12 [2-(4-{[(5-methoxypyridin-2-yl)methyl]amino}phenyl)-3-(methylamino)imidazo[1,2-a]pyridine-7-carbonitrile]"
7,< 0.1,"CNc1c(-c2ccc(OCc3cnc(OC)cn3)cc2)nc2cc(C#N)ccn12 [2-{4-[(5-methoxypyrazin-2-yl)methoxy]phenyl}-3-(methylamino)imidazo[1,2-a]pyridine-7-carbonitrile]"
8,< 0.1,"CNc1c(-c2cn3c(n2)sc2ccc(OC)cc23)nc2cc(C#N)ccn12 [2-{11-methoxy-7-thia-2,5-diazatricyclo[6.4.0.0^2,6]dodeca-1(12),3,5,8,10-pentaen-4-yl}-3-(methylamino)imidazo[1,2-a]pyridine-7-carbonitrile]"
9,< 0.1,"CNc1c(-c2cc3cc(OC)ccc3o2)nc2cc(OC)ccn12 [7-methoxy-2-(5-methoxy-1-benzofuran-2-yl)-N-methylimidazo[1,2-a]pyridin-3-amine]"
10,< 0.1,"CNc1c(-c2cc3cc(OC)ccc3o2)nc2cc(Br)ccn12 [7-bromo-2-(5-methoxy-1-benzofuran-2-yl)-N-methylimidazo[1,2-a]pyridin-3-amine]"
11,< 0.1,"CNc1c(-c2cn3c(n2)sc2cc(OC)ccc23)nc2cc(C#N)ccn12 [2-{10-methoxy-7-thia-2,5-diazatricyclo[6.4.0.0^2,6]dodeca-1(12),3,5,8,10-pentaen-4-yl}-3-(methylamino)imidazo[1,2-a]pyridine-7-carbonitrile]"
12,< 0.1,"CNc1c(-c2ccc(-c3cnccn3)cc2)nc2cc(C#N)ccn12 [3-(methylamino)-2-[4-(pyrazin-2-yl)phenyl]imidazo[1,2-a]pyridine-7-carbonitrile]"
13,0.1 to 0.5,"COc1ccc2oc(-c3nc4cc(C#N)ccn4c3NCCN(C)C)cc2c1 [3-{[2-(dimethylamino)ethyl]amino}-2-(5-methoxy-1-benzofuran-2-yl)imidazo[1,2-a]pyridine-7-carbonitrile]"
14,< 0.1,"CNc1c(-c2nc3ccc(OC)cc3s2)nc2cc(C#N)ccn12 [2-(6-methoxy-1,3-benzothiazol-2-yl)-3-(methylamino)imidazo[1,2-a]pyridine-7-carbonitrile]"
15,0.1 to 0.5,"OCCNc1c(-c2cc3cc(O)ccc3o2)nc2ccccn12 [2-{3-[(2-hydroxyethyl)amino]imidazo[1,2-a]pyridin-2-yl}-1-benzofuran-5-ol]"
16,< 0.1,"CNc1c(-c2ccc(OCc3cccnc3)cc2)nc2cc(C#N)ccn12 [3-(methylamino)-2-[4-(pyridin-3-ylmethoxy)phenyl]imidazo[1,2-a]pyridine-7-carbonitrile]"
17,< 0.1,"CNc1c(-c2cc3cc(O)ccc3o2)nc2cc(F)ccn12 [2-[7-fluoro-3-(methylamino)imidazo[1,2-a]pyridin-2-yl]-1-benzofuran-5-ol]"
18,< 0.1,"CNc1c(-c2nc3cc(OC)ccc3n2C)nc2cc(C#N)ccn12 [2-(5-methoxy-1-methyl-1H-1,3-benzodiazol-2-yl)-3-(methylamino)imidazo[1,2-a]pyridine-7-carbonitrile]"
19,0.1 to 0.5,"COc1ccc2oc(-c3nc4cc(C#N)ccn4c3CN(C)C)cc2c1 [3-[(dimethylamino)methyl]-2-(5-methoxy-1-benzofuran-2-yl)imidazo[1,2-a]pyridine-7-carbonitrile]"
